{"source": "paper PMC8875392", "about": "“Design and Characterization of Myristoylated and Non-Myristoylated Peptides Effective against Candida spp. Clinical Isolates” (International Journal of Molecular Sciences, 2022)", "tested_on": "Candida auris", "assay": "In vivo peptide efficacy in Galleria mellonella larvae infected with C. auris", "settings": "larvae infected with Candida auris 10^7 CFU, groups of ten, peptide 640 µg/mL injected at the same time, 30 °C", "method": "Multidrug-resistant C. auris was chosen as a representative species for in vivo studies. […] Groups of ten G. mellonella larvae were infected with C. auris and treated with the Pep-B and Myr-B peptides at a concentration of 640 µg/mL (about 400 µM).\nTen larvae (250–320 mg each) were selected at random for each step in the procedure. Any larvae with darkening of the cuticle were discarded. The test compounds and yeast were injected into the hemocoel in water buffer through the last left proleg (Insumed 30G Pic, Italy, syringe volume 0.5 mL, needle size 30G). The larvae were incubated in the dark for 3 days, and mortality was recorded daily.\nAn infective dose of yeast Candida auris was determined by injecting groups of ten larvae with a suspension at 10^5, 10^6, 10^7, and 10^8 colony-forming units (CFU) per injection. The larvae were incubated for 3 days at 30 °C. An infective dose was defined as the one that caused an immune response, recognizable by the darkening of the cuticle and able to kill approximately 50% of larvae after 24 h.\nFor the peptide efficacy experiment, ten larvae were injected into the last left proleg with a pre-determined infective dose of yeast and the dose of peptides at the same time in a final volume of 10 μL and incubated at 30 °C. Each step in the procedure included six groups of 10 larvae: C. auris-infected larvae (10^7 CFU), infected and treated larvae with peptide B (640 μg/mL), infected and treated larvae with peptide Myr-B (640 μg/mL), treated larvae with peptide B (640 μg/mL), treated larvae with peptide Myr-B (640 μg/mL), and vehicle-injected control (water). The mortality was recorded daily for 3 days.", "note": "Where a SMILES comes first, the peptide text is derived from it. The star is where a group is joined. Myristoyl = CCCCCCCCCCCCCC(=O)*", "data": [{"smiles": "CCCCCCCCCCCCCC(=O)N[C@@H](Cc1c[nH]c2ccccc12)C(=O)N[C@@H](CCCNC(=N)N)C(=O)NCC(=O)N[C@H](C(=O)N[C@H](C(=O)N[C@@H](CCCCN)C(=O)N[C@H](C(=O)N[C@H](C(=O)N[C@@H](CCCCN)C(=O)N[C@@H](CCCCN)C(=O)N[C@H](C(=O)O)C(C)C)C(C)C)C(C)C)[C@@H](C)O)[C@@H](C)CC", "note": "[Myr-B] (Myristoyl-WRGITKVVKKV-OH; C-terminus assumed)", "values": [{"measurement": "Peptide efficacy, DAY 1 Alive", "result": 8}, {"measurement": "Peptide efficacy, DAY 1 Dead", "result": 2}, {"measurement": "Peptide efficacy, DAY 2 Alive", "result": 3}, {"measurement": "Peptide efficacy, DAY 2 Dead", "result": 7}, {"measurement": "Peptide efficacy, DAY 3 Alive", "result": 3}, {"measurement": "Peptide efficacy, DAY 3 Dead", "result": 7}]}]}
